One data set deals with yeasts. The experiment in a line: MIC with yeasts (Table XI). The data set is classed as cell-based. The following applies: 48 h, 48 hours at 37° C., aerobic. Here is the method:
(§1) Further experiments have also been conducted to determine the MIC of a number of other compositions as follows. The experimental procedure followed is the same as that initially described at the beginning of this Examples and Data section of the specification, except where indicated below.
The results were obtained following incubation for 48 hours at 37° C. in aerobic conditions.

The test system of data set [1] is A549 (ATCC CCL-185) cells. The data set is classed as cell-based. The procedure: A549 (ATCC CCL-185) cells were plated onto a 96 well and allowed to attach overnight, the wells were washed, and 100 ul of DMEM (Gibco) with 2% FCS was added. To the first column of the data set below, 100 μl of neat virus was added. The virus used was Respiratory Syncytial Virus (RSV), strain A2, a common laboratory strain which retains the ability to infect animal models.
A two serial dilution was performed (up to column 10), lanes 11+12 were uninfected controls, but relevant lanes contained the appropriate concentration of Laureth 4, laureth 4 was added 1 hour after virus absorption. The alkoxylated alkanol compounds used in the experiment were ‘high purity’, i.e. having a GC purity of at least 97%.
After 96 hours incubation at 33° C. the medium was removed, cell washed with PBS and stained with methylene blue (Gibco). Cytopathic effect (cpe) was noted visually and wells marked either as positive or negative when view under a light microscope at 4× magnification.

The next data set concerns Propionibacteria. The experiment in a line: MIC with Propionibacteria (Table X). The data set is classed as cell-based. Particulars: 48 h, 48 hours at 37° C., anaerobic. Here is the method:
as §1
The results were obtained following incubation for 48 hours at 37° C. in anaerobic conditions.

In a further data set the test system is MRSA NCTC 11939. Nature of the data set: Synergy testing: disc susceptibility, zone of inhibition on agar containing Laureth derivative. The data set is classed as cell-based, Staphylococcus aureus. The following applies: MRSA NCTC 11939, disc test. Here is the method: There now follows data relating to a screen for synergistic interaction between Laureth derivatives [C12E1 to C12E8] and 12 conventional anti-staphylococcal agents.
Ethoxylated Lauryl Alcohol Derivative Preparation As plates containing quarter strength of the MIC of NCTC 11939 are needed, and therefore very small weights of each compound, they were prepared at twenty time strength in 20 mL volumes in plastic universals. Once prepared these solutions were diluted […] by adding 1 mL to 1 mL SDW, resulting a 2 mL volume at ten times strength. This was undertaken in duplicate to create two identical plates.
IST was prepared as previously stated in above. 18 mL agar was added to each universal and then poured into sterile Petri dishes. Control plates were prepared as stated above
A 0.5 McFarland suspension of MRSA NCTC 11939 was prepared using SDW. This was then adjusted to a concentration of 1.5×107 by adding 200 μL to 1.8 mL of SDW. Once diluted, a sterile cotton swab was used to spread the suspension evenly across the entire surface of each agar plate.
Twelve antibiotics discs were added to the plates, 6 per plate in a circle. The plates were then incubated aerobically at 37° C.
The diameter of the zones of clearance were measured and recorded in millimetres. The zones for each compound were compared to the control and to BSAC breakpoints.
A variation of zone size within 2 mm is within acceptable limits of assay reproducibility.

Molecules are shown by their SMILES. Values after ≈ are worked out from the molar mass of the structure shown.

In general, MIC refers to the lowest concentration found to suppress growth. Lower therefore signals greater potency.

For the molecule `CCCCCCCCCCCCOCCOCCOCCOCCO` [L4, Tetraethylene Glycol Monododecyl Ether], the MIC in the data set on yeasts (Candida guilliemondii 380022E) was greater than 220 µM; with yeasts (Candida lustaniae 458891B), greater than 220 µM; against yeasts (all of the yeasts tested), less than 880 µM; in the data set on yeasts (Candida albicans, Candida albicans 383107), greater than 220 µM; in the data set on yeasts (Candida albicans, Candida albicans 384403C), 220 µM (≈ 79.8 µg/mL); against yeasts (Candida albicans, Candida albicans 457932F), greater than 220 µM. Also, the MIC against yeasts (Candida albicans, Candida albicans 464644V) is 220 µM (≈ 79.8 µg/mL); against yeasts (Candida albicans, Candida albicans 540668D), 110 µM (≈ 39.9 µg/mL); in the data set on yeasts (Candida albicans, Candida albicans 540992V) it was 220 µM (≈ 79.8 µg/mL); with yeasts (Candida albicans, Candida albicans 561251J), greater than 220 µM; with yeasts (Candida dubliniensis, Candida dubliniensis 383086P), 110 µM (≈ 39.9 µg/mL); against yeasts (Candida tropicalis, Candida tropicalis 470273M) it was greater than 220 µM. The MIC against yeasts (Kluyveromyces marxianus, Candida kefyr 337838T) was 55 µM (≈ 19.9 µg/mL); against yeasts (Lodderomyces parapsilosis, Candida parapsilosis 381611V) it was greater than 220 µM; in the data set with yeasts (Lodderomyces parapsilosis, Candida parapsilosis 547133B), greater than 220 µM; with yeasts (Nakaseomyces glabratus, Candida glabrata 437713D), greater than 220 µM; in the data set with yeasts (Nakaseomyces glabratus, Candida glabrata 882870Q) it was greater than 220 µM; in the data set with yeasts (Pichia kudriavzevii, Candida krusei 378573D), greater than 220 µM. For the same molecule, the MIC against Propionibacteria (Propionibacterium granulosum 354039G) is 440 µM (≈ 160 µg/mL); with Propionibacteria (Propionibacterium granulosum 354043J), 440 µM (≈ 160 µg/mL); in the data set on Propionibacteria (Propionibacterium granulosum 354044V), 880 µM (≈ 319 µg/mL); in the data set with Propionibacteria (Propionibacterium species 387327Y), 440 µM (≈ 160 µg/mL); against Propionibacteria (certain of the Propionibacteria tested) it was less than 880 µM; against Propionibacteria (Cutibacterium acnes, Propionibacterium acnes 737) it was 880 µM (≈ 319 µg/mL). Further, the MIC against Propionibacteria (Cutibacterium avidum, Propionibacterium avidum 340090P) worked out at 880 µM (≈ 319 µg/mL); against Propionibacteria (Cutibacterium avidum, Propionibacterium avidum 340093T) it was 880 µM (≈ 319 µg/mL); with Propionibacteria (Cutibacterium avidum, Propionibacterium avidum 340097V), 880 µM (≈ 319 µg/mL); in the data set with Propionibacteria (Cutibacterium avidum, Propionibacterium avidum 354020J), 880 µM (≈ 319 µg/mL); with Propionibacteria (Cutibacterium avidum, Propionibacterium avidum 354025L) it was 880 µM (≈ 319 µg/mL). Also, the “state of treated, uninfected cells” value in data set [1] is “healthy and showed little cellular apathy”.

Take `CCCCCCCCCCCCOCCOCCOCCOCCOCCOCCOCCOCCO` [L8, Octaethylene Glycol Monododecyl Ether]: the “susceptibility to various other agents in the presence of Laureth derivative” value with MRSA NCTC 11939 is recorded as “slight increase in susceptibility”.

The values are drawn from patent US20130165368A1, “ANTIMICROBIAL COMPOUNDS” (priority 2010, published 2013).
